From US20120142705A1, “ISATIN AND OXINDOLE COMPOUNDS” (priority 2010, published 2012) come the findings set out here.

For the experiment, the target named is T1, Recombinant human liver GK1 (GST-GK) (Homo sapiens, UniProt P35557).
T1 construct: made in house; host or cells: E. coli
T1 sequence (P35557 1-466 isoform P35557-2): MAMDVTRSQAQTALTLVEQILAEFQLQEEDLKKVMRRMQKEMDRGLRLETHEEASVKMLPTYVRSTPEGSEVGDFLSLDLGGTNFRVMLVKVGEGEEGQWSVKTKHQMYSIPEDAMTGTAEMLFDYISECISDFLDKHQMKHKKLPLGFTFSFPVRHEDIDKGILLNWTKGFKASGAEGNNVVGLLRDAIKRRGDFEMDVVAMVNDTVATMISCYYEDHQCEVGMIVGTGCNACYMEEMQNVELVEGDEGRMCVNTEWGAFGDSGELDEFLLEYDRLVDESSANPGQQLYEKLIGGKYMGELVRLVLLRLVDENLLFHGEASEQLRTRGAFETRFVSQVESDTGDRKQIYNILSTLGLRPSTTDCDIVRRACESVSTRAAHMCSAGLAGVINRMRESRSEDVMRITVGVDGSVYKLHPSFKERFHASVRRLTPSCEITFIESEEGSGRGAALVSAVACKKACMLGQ
In words: In vitro glucokinase activity, G6PDH-coupled spectrophotometric assay. The note with it: 5 mM D-glucose, 30° C.; for SC1.5 (concentration of activator that produced a 50% increase in the activity of GK): pH 7.1. The format is biochemical. The procedure:
Glucokinase In Vitro Assay Protocol: Glucokinase (GK) was assayed by coupling the production of glucose-6-phosphate to the generation of NADH with glucose-6-phosphate dehydrogenase (G6PDH, 0.75-1 kunits/mg; Boehringer Mannheim, Indianapolis, Ind.) from Leuconostoc mesenteroides as the coupling enzyme (Scheme 2).
Recombinant human liver GK1 was expressed in E. coli as a glutathione S-transferase fusion protein (GST-GK) [Liang et al, 1995] and was purified by chromatography over a glutathione-Sepharose 4B affinity column using the procedure provided by the manufacturer (Amersham Pharmacia Biotech, Piscataway, N.J.).
The assay was conducted at 30° C. in a flat bottom 96-well tissue culture plate from Costar (Cambridge, Mass.) with a final incubation volume of 120 μL. The incubation reaction contained the following: 25 mM Hepes buffer (pH 7.1), 25 mM KCl, 5 mM D-glucose, 1 mM ATP, 1.8 mM NAD, 2 mM MgCl2, 1 μM sorbitol-6-phosphate, 1 mM dithiothreitol, test drug or 10% dimethylsulfoxide, ˜7 units/ml G6PDH, and GK (see below). All organic reagents were >98% pure and were from Boehringer Mannheim with the exceptions of D-glucose and Hepes which were from Sigma Chemical Co, St Louis, Mo. Test compounds were dissolved in dimethylsulfoxide and were added to the incubation reaction minus GST-GK in a volume of 12 μL to yield a final dimethylsulfoxide concentration of 10%. This mix was pre-incubated in the temperature controlled chamber of a SPECTRAmax 250 microplate spectrophotometer (Molecular Devices Corporation, Sunnyvale, Calif.) for 10 minutes to allow temperature equilibrium and then the reaction was started by the addition of 20 μL GST-GK.
After addition of enzyme, the increase in optical density (OD) at 340 nm was monitored spectrophotometrically to determine the rate of change (OD340 per min). The GK activity (OD340/min) in control wells (10% dimethylsulfoxide minus GK activators) was compared with the activity in wells containing test GK activators, and the concentration of activator that produced a 50% increase in the activity of GK, i.e., the SC1.5, was calculated.

As a reminder, the fold induction is the ratio of treated to control signal.

As to `O=C1C(=O)N(C(CC2CCCC2)C(=O)Nc2cnccn2)c2ccccc21` (stereo not shown) [Example 1, 3-Cyclopentyl-2-(2,3-dioxo-2,3-dihydro-indol-1-yl)-N-pyrazin-2-yl-propionamide], the “SC1.5 (concentration of activator that produced a 50% increase in the activity of GK)” value was found to be 18.64 µM.

Turning to `O=C(Nc1cnccn1)C(CC1CCCC1)N1C(=O)Cc2ccccc21` (stereo not shown) [Example 2, 3-Cyclopentyl-2-(2-oxo-2,3-dihydro-indol-1-yl)-N-pyrazin-2-yl-propionamide], the “SC1.5 (concentration of activator that produced a 50% increase in the activity of GK)” value was found to be 5.93 µM.

`O=C(Nc1nccs1)C(CC1CCCC1)N1C(=O)Cc2ccccc21` (stereo not shown) [Example 3, 3-Cyclopentyl-2-(2-oxo-2,3-dihydro-indol-1-yl)-N-thiazol-2-yl-propionamide]: the “SC1.5 (concentration of activator that produced a 50% increase in the activity of GK)” value amounted to 3.3 µM.

Take `O=C1C(=O)N(C(CC2CCCC2)C(=O)Nc2nccs2)c2ccccc21` (stereo not shown) [Example 4, 3-Cyclopentyl-2-(2,3-dioxo-2,3-dihydro-indol-1-yl)-N-thiazol-2-yl-propionamide]: the “SC1.5 (concentration of activator that produced a 50% increase in the activity of GK)” value worked out at 5.21 µM.

Consider `Cn1ccc(NC(=O)C(CC2CCCC2)N2C(=O)C(=O)c3ccccc32)n1` (stereo not shown) [Example 5, 3-Cyclopentyl-2-(2,3-dioxo-2,3-dihydro-indol-1-yl)-N-(1-methyl-1H-pyrazol-3-yl)-propionamide], for which the fold induction at 30 µM stood at 1.47.

With `O=C1C(=O)N(C(CC2CCCC2)C(=O)Nc2ccccn2)c2ccccc21` (stereo not shown) [Example 6, 3-Cyclopentyl-2-(2,3-dioxo-2,3-dihydro-indol-1-yl)-N-pyridin-2-yl-propionamide], the “SC1.5 (concentration of activator that produced a 50% increase in the activity of GK)” value worked out at 5.19 µM.

For the molecule `Cn1ccc(NC(=O)C(CC2CCCC2)N2C(=O)Cc3ccccc32)n1` (stereo not shown) [Example 7, 3-Cyclopentyl-N-(1-methyl-1H-pyrazol-3-yl)-2-(2-oxo-2,3-dihydro-indol-1-yl)-propionamide], the “SC1.5 (concentration of activator that produced a 50% increase in the activity of GK)” value turned out to be 17.55 µM.

For the molecule `O=C(Nc1ccccn1)C(CC1CCCC1)N1C(=O)Cc2ccccc21` (stereo not shown) [Example 8, 3-Cyclopentyl-2-(2-oxo-2,3-dihydro-indol-1-yl)-N-pyridin-2-yl-propionamide], the “SC1.5 (concentration of activator that produced a 50% increase in the activity of GK)” value stood at 4.93 µM.

For `CC(C)CC(C(=O)Nc1ccccn1)N1C(=O)C(=O)c2ccccc21` (stereo not shown) [Example 9, 2-(2,3-Dioxo-2,3-dihydro-indol-1-yl)-4-methyl-pentanoic acid pyridin-2-ylamide], the fold induction at 30 µM came out at 1.33.

Regarding `CC(C)CC(C(=O)Nc1nccs1)N1C(=O)C(=O)c2ccccc21` (stereo not shown) [Example 10, 2-(2,3-Dioxo-2,3-dihydro-indol-1-yl)-4-methyl-pentanoic acid thiazol-2-ylamide], the fold induction at 30 µM turned out to be 1.2.

Regarding `CC(C)CC(C(=O)Nc1nccs1)N1C(=O)Cc2ccccc21` (stereo not shown) [Example 11, 4-Methyl-2-(2-oxo-2,3-dihydro-indol-1-yl)-pentanoic acid thiazol-2-ylamide], the “SC1.5 (concentration of activator that produced a 50% increase in the activity of GK)” value is 16.22 µM.

Turning to `CC(C)CC(C(=O)Nc1ccccn1)N1C(=O)Cc2ccccc21` (stereo not shown) [Example 12, 4-Methyl-2-(2-oxo-2,3-dihydro-indol-1-yl)-pentanoic acid pyridin-2-ylamide], the “SC1.5 (concentration of activator that produced a 50% increase in the activity of GK)” value is 18.09 µM.

Consider `O=C1C(=O)N(C(CC2CCCC2)C(=O)Nc2cnccn2)c2cccc(Cl)c21` (stereo not shown) [Example 13, 2-(4-Chloro-2,3-dioxo-2,3-dihydro-indol-1-yl)-3-cyclopentyl-N-pyrazin-2-yl-propionamide], for which the “SC1.5 (concentration of activator that produced a 50% increase in the activity of GK)” value stood at 6.94 µM.

In the case of `O=C1C(=O)N(C(CC2CCCC2)C(=O)Nc2ccccn2)c2cccc(Cl)c21` (stereo not shown) [Example 14, 2-(4-Chloro-2,3-dioxo-2,3-dihydro-indol-1-yl)-3-cyclopentyl-N-pyridin-2-yl-propionamide], the “SC1.5 (concentration of activator that produced a 50% increase in the activity of GK)” value turned out to be 1.9 µM.

For the molecule `Cn1ccc(NC(=O)C(CC2CCCC2)N2C(=O)C(=O)c3c(Cl)cccc32)n1` (stereo not shown) [Example 15, 2-(4-Chloro-2,3-dioxo-2,3-dihydro-indol-1-yl)-3-cyclopentyl-N-(1-methyl-1H-pyrazol-3-yl)-propionamide], the “SC1.5 (concentration of activator that produced a 50% increase in the activity of GK)” value turned out to be 6.5 µM.

In the case of `O=C1C(=O)N(C(CC2CCCC2)C(=O)Nc2nccs2)c2cccc(Cl)c21` (stereo not shown) [Example 16, 2-(4-Chloro-2,3-dioxo-2,3-dihydro-indol-1-yl)-3-cyclopentyl-N-thiazol-2-yl-propionamide], the “SC1.5 (concentration of activator that produced a 50% increase in the activity of GK)” value was determined as 3.91 µM.

Consider `CC(C)CC(C(=O)Nc1cnccn1)N1C(=O)C(=O)c2c(Cl)cccc21` (stereo not shown) [Example 17, 2-(4-Chloro-2,3-dioxo-2,3-dihydro-indol-1-yl)-4-methyl-pentanoic acid pyrazin-2-ylamide], for which the fold induction at 30 µM came to 1.39.

In the case of `CC(C)CC(C(=O)Nc1ccccn1)N1C(=O)C(=O)c2c(Cl)cccc21` (stereo not shown) [Example 18, 2-(4-Chloro-2,3-dioxo-2,3-dihydro-indol-1-yl)-4-methyl-pentanoic acid pyridin-2-ylamide], the “SC1.5 (concentration of activator that produced a 50% increase in the activity of GK)” value is 13.42 µM.

For the molecule `CC(C)CC(C(=O)Nc1ccn(C)n1)N1C(=O)C(=O)c2c(Cl)cccc21` (stereo not shown) [Example 19, 2-(4-Chloro-2,3-dioxo-2,3-dihydro-indol-1-yl)-4-methyl-pentanoic acid (1-methyl-1H-pyrazol-3-yl)-amide], the fold induction at 30 µM is 1.24.

Turning to `CC(C)CC(C(=O)Nc1nccs1)N1C(=O)C(=O)c2c(Cl)cccc21` (stereo not shown) [Example 20, 2-(4-Chloro-2,3-dioxo-2,3-dihydro-indol-1-yl)-4-methyl-pentanoic acid thiazol-2-ylamide], the “SC1.5 (concentration of activator that produced a 50% increase in the activity of GK)” value was determined as 7.72 µM.

For the molecule `O=C(Nc1ccccn1)C(CC1CCCC1)N1C(=O)Cc2c(Cl)cccc21` (stereo not shown) [Example 21, 2-(4-Chloro-2-oxo-2,3-dihydro-indol-1-yl)-3-cyclopentyl-N-pyridin-2-yl-propionamide], the “SC1.5 (concentration of activator that produced a 50% increase in the activity of GK)” value stood at 1.23 µM.

As for `O=C(Nc1nccs1)C(CC1CCCC1)N1C(=O)Cc2c(Cl)cccc21` (stereo not shown) [Example 22, 2-(4-Chloro-2-oxo-2,3-dihydro-indol-1-yl)-3-cyclopentyl-N-thiazol-2-yl-propionamide], the “SC1.5 (concentration of activator that produced a 50% increase in the activity of GK)” value was 1.98 µM.

For the molecule `Cn1ccc(NC(=O)C(CC2CCCC2)N2C(=O)Cc3c(Cl)cccc32)n1` (stereo not shown) [Example 23, 2-(4-Chloro-2-oxo-2,3-dihydro-indol-1-yl)-3-cyclopentyl-N-(1-methyl-1H-pyrazol-3-yl)-propionamide], the “SC1.5 (concentration of activator that produced a 50% increase in the activity of GK)” value was 7.4 µM.

On to `O=C(Nc1cnccn1)C(CC1CCCC1)N1C(=O)Cc2c(Cl)cccc21` (stereo not shown) [Example 24, 2-(4-Chloro-2-oxo-2,3-dihydro-indol-1-yl)-3-cyclopentyl-N-pyrazin-2-yl-propionamide], for which the “SC1.5 (concentration of activator that produced a 50% increase in the activity of GK)” value amounted to 2.66 µM.

For the molecule `CC(C)CC(C(=O)Nc1cnccn1)N1C(=O)Cc2c(Cl)cccc21` (stereo not shown) [Example 25, 2-(4-Chloro-2-oxo-2,3-dihydro-indol-1-yl)-4-methyl-pentanoic acid pyrazin-2-ylamide], the “SC1.5 (concentration of activator that produced a 50% increase in the activity of GK)” value turned out to be 16.78 µM.

Take `CC(C)CC(C(=O)Nc1ccccn1)N1C(=O)Cc2c(Cl)cccc21` (stereo not shown) [Example 26, 2-(4-Chloro-2-oxo-2,3-dihydro-indol-1-yl)-4-methyl-pentanoic acid pyridin-2-ylamide]: the “SC1.5 (concentration of activator that produced a 50% increase in the activity of GK)” value came to 6.77 µM.

As to `CC(C)CC(C(=O)Nc1ccn(C)n1)N1C(=O)Cc2c(Cl)cccc21` (stereo not shown) [Example 27, 2-(4-Chloro-2-oxo-2,3-dihydro-indol-1-yl)-4-methyl-pentanoic acid (1-methyl-1H-pyrazol-3-yl)-amide], the fold induction at 30 µM worked out at 1.39.

As for `CC(C)CC(C(=O)Nc1nccs1)N1C(=O)Cc2c(Cl)cccc21` (stereo not shown) [Example 28, 2-(4-Chloro-2-oxo-2,3-dihydro-indol-1-yl)-4-methyl-pentanoic acid thiazol-2-ylamide], the “SC1.5 (concentration of activator that produced a 50% increase in the activity of GK)” value was determined as 9.95 µM.
